Consider one compound from US7601739B2, “Compounds having antiestrogenic and tissue selective estrogenic properties, and compounds with anti-androgenic properties for treatment of prostate cancer and androgen receptor dependent diseases” (Virgina Commonwealth University, priority 2006, dated 2009).

The target in this assay is T1, hERα (Homo sapiens, UniProt P03372).
T1 construct: the full length hERα was inserted into pGAD-GAL4 and pGBD-GAL4 vectors; expressed in transfected cells; host or cells: S. cerevisiae Y190 transformed with pGBT-hER (pGBKT7) and pGAD-hER (pGADT7)
T1 sequence (P03372 1-595) 1: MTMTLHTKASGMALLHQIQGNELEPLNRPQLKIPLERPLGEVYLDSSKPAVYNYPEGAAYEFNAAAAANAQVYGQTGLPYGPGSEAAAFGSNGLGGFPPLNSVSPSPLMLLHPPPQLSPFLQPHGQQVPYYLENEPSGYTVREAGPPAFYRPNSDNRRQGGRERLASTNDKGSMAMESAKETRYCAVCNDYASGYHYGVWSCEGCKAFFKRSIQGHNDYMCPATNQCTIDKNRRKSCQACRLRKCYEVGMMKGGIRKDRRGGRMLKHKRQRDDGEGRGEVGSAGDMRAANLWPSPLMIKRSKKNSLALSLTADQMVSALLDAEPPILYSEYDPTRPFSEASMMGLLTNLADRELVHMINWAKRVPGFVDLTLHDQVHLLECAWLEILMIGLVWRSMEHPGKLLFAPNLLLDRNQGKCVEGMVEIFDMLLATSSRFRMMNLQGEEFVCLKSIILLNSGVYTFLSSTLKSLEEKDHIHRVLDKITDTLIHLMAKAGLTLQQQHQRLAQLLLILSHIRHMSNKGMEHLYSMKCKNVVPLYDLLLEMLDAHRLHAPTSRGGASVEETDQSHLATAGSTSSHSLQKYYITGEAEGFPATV
T1 sequence (P03372 1-595) 2: T1 sequence (P03372 1-595) 1
Nature of the assay: Yeast two-hybrid and filter lift assay of hERα dimerization. In kind it is cell-based. The protocol: The transformed yeasts with yeast two-hybrid vectors were cultured in synthetic medium lacking trytophan, and leucine. […] After that, the membranes were soaked in 0.4 ml Z-buffer/Xgal (60 mM Na2HPO4, 40 mM NaH2PO410 mM KCl, 1 mM MgSO4, 0.1% SDS, 50 mM -mercaptoethanol, 20 mM Xgal). The pictures of the results were taken within 2 and 3 hours after the -galactosidase assay was processed.
Dimerization of estrogen receptor plays an essential role in regulating estrogen receptor's functions including DNA binding, transactivation, and coactivator recruitment. In this study, yeast two hybrid and filter lift assays were used to determine the ability of compounds 2 and 6 to interrupt the dimerization of hERα. For setting up yeast two hybrid assay, the full length hERα was inserted into pGAD-GAL4 and pGBD-GAL4 vectors. In pGBD-GAL4, hERα was fused to the GAL4 DNA binding domain through its N terminus. In pGAD-GA14, hERα was fused to the GAL4 activation domain through its N terminus. When the dimerization of hERα occurs mainly through its C terminus, the GAL4 DNA binding domain binds to the repeated GAL4 response element located in front of the β-gal reporter gene and the whole complex, GAL4-BD/hERα/hERα/GAL4-AD, turns on the synthesis of the product of β-gal reporter gene. […] Filter lift assay in which X-gal was used, was employed to qualitatively determine the activity of β-galactosidase.

Entries after “also recorded” stand apart in the source; their conditions may differ.

In the case of `CCCCNC(=O)CCCCCCCCCCOCC1Cc2ccccc2CN1C(=O)c1cccc(O)c1` (stereo not drawn) [Compound 6], the “inhibitory activity against hERα dimerization in combination with estrogen” value (combined with estrogen) is on record as “inhibitory activity is higher than tamoxifen's; also recorded: obvious inhibitory activity”. Moreover, where the note is “estrogen's colony as reference, more blue = less inhibition”, the “blue color change of yeast colony in combination with estrogen” value is reported as “slight blue color change”. The “induction of hERα dimerization, compound alone” value (tested alone) is “did not induce hERα dimerization; also recorded: do not promote the dimerization of hERα”.
